“And” between values parts separate entries of the source, which are not always exact repeats. Equal entries are not always repeated. Where two headings read alike, the source gives them in different places.
Columns and labels:
Fadu cells = experiment: CellTiter-Glo luminescent cell viability assay, Fadu; details: for Fadu Cell viability (% of controll): dose–response, individual replicates
[1] = system: non-tumorous primary fibroblast cells; experiment: CellTiter-Glo luminescent cell viability assay, primary fibroblasts; details: for Primer fibroblast Cell viability (% of controll): 72 h, dose–response, individual replicates
Protocol: (§1) Primary fibroblast cultures were prepared from human skin biopsies and maintained in DMEM supplemented with 10% FBS, 1% penicillin-streptomycin, and 1% MEM Non-Essential Amino Acids Solution (Thermo Fisher Scientific). […] All cell lines were cultured in a humidified atmosphere at 37 °C and 5% CO2, passaged twice a week, and the experiments were performed on cells between passage 5 and 15. The cell lines were routinely screened for the absence of mycoplasma infection (DAPI staining).
(§2) The effects of the synthesized compounds on cell viability were measured using the CellTiter-Glo® luminescent cell viability assay (Promega, Madison, WI, USA), according to the manufacturer’s instructions. Briefly, cells were seeded onto a flat-bottomed, white 96-well plate (BRANDplates, cat. no.: 781965)), with the following densities: PANC-1: 750 cells/well, Fadu: 2000 cells/well, primary fibroblasts: 2000 cells/well, HEK293T WT: 1000 cells/well, HEK293T CLPP^−/−: 2500 cells/well. After seeding, cells were incubated for a further 48 h before treatment. Cells were treated with the compounds for 72 h. Three concentrations (25.0 µM; 8.3 µM; 2.8 µM) were applied during the initial cell viability screening, while for the determination of dose–response curves, 1.5-fold serially diluted compound concentrations were applied (range: 26 µM–0.7 µM). After treatment, the luminescence signal was recorded using a microplate reader (BioTek Synergy 2 Multi-Mode Reader, BioTek, Winooski, VT, USA).
(§3) Data analysis was performed using GraphPad Prism 9.5.0 software (GraphPad Software, San Diego, CA, USA). […] The dose–response curves were generated by four-parameter nonlinear regression, and the IC50 values were determined as the means ± SEM of the best-fit values of 3 independent measurements. The R^2 values were consistently above 0.93, indicating a strong fit of the model to the experimental data (Supplementary S.89). […] Dunnett’s post hoc test was applied to adjust for multiple comparisons, minimizing the likelihood of false positive results. Assumptions for ANOVA, including normality (assessed via QQ plots) and homogeneity of variance (tested using the Brown–Forsythe test), were verified. The following significance levels were applied: * p < 0.05, ** p < 0.01, *** p < 0.001, **** p < 0.0001. […] The tumor selectivity of the compounds was quantitatively characterized by the selectivity index (SI). This parameter was calculated as the ratio of the average best-fit IC50 value for primary fibroblasts and the best-fit IC50 value for the corresponding tumor cells (PANC-1 or Fadu).

HEK293T WT cells = experiment: CellTiter-Glo cell viability assay, HEK293T WT; details: for HEK293T WT Cell viability (% of controll): 72 h, dose–response, individual replicates
Protocol: as §1, §2, §3

PANC-1 and Fadu cells = experiment: CellTiter-Glo viability, statements covering both cancer cell lines; type: cell-based, human; details: 72 h dose–response
HEK293T CLPP^−/− cells = experiment: CellTiter-Glo cell viability assay, HEK293T CLPP−/− (ClpP dependence); details: for HEK293T CLPP-/- Cell viability (% of controll): individual replicates;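 for all read-outs here: CellTiter-Glo luminescent signal read on a microplate reader once HEK293T CLPP−/− cells had been exposed to compounds for 72 h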
Protocol: as §1, §2, §3

PANC-1 cells [2] = experiment: Colony formation (clonogenic) assay; type: cell-based, human; details: 4 µM
PANC-1 cells [3] = experiment: CellTiter-Glo luminescent cell viability assay, PANC-1; details: for PANC-1 Cell viability (% of controll): dose–response, individual replicates
Protocol: as §1, §2, §3

- IC50 (PANC-1 cells [3]; read-out: IC50 Value ± SEM PANC-1, 72 h treatment, best-fit values, n = 3): 2700 ± 70 nM
- IC50 (PANC-1 cells [3]; read-out: PANC-1 IC50 values, Mean, mean of independently fitted replicate IC50 values (Supplement S.6)): 2710 nM
- IC50 (PANC-1 cells [3]; read-out: PANC-1 IC50 values, individual replicates n1-n3, IC50 independently determined for each replicate measurement (Supplement S.6)): 2790 nM and 2620 nM and 2720 nM
Structure (SMILES): CNCC#Cc1cccc(CN2C(=O)C3=C(CCN(Cc4ccc(-n5cc(-[c-]6cccc6)nn5)cc4)C3)N3CCN=C23)c1.[Fe+2].c1cc[cH-]c1 [38a]
- Fadu Cell viability (% of controll) (Fadu cells; 0.7 μM, 72 h): 109 % of controll and 115 % of controll and 106 % of controll
- Fadu Cell viability (% of controll) (Fadu cells; 1 μM, 72 h): 110 % of controll and 106 % of controll and 105 % of controll
- Fadu Cell viability (% of controll) (Fadu cells; 1.5 μM, 72 h): 102 % of controll and 103 % of controll and 100 % of controll
- Fadu Cell viability (% of controll) (Fadu cells; 2.3 μM, 72 h): 96 % of controll and 91 % of controll and 87 % of controll
- Fadu Cell viability (% of controll) (Fadu cells; 3.4 μM, 72 h): 43 % of controll and 13 % of controll (2×)
- Fadu Cell viability (% of controll) (Fadu cells; 5.1 μM, 72 h): 0 % of controll
- Fadu Cell viability (% of controll) (Fadu cells; 7.7 μM, 72 h): 0 % of controll
- Fadu Cell viability (% of controll) (Fadu cells; 17.3 μM, 72 h): 0 % of controll
- Fadu Cell viability (% of controll) (Fadu cells; 26 μM, 72 h): 0 % of controll
- Cell Viability (% of Control) 2.8 µM (Fadu cells; Fadu, 2.8 µM, 72 h, second-set screening, mean ± SD, n = 2): 85 ± 16 % of Control
- Cell Viability (% of Control) 8.3 µM (Fadu cells; Fadu, 8.3 µM, 72 h, second-set screening, mean ± SD, n = 2): 0 ± 1 % of Control
- Cell Viability (% of Control) 25 µM (Fadu cells; Fadu, 25 µM, 72 h, second-set screening, mean ± SD, n = 2): 0 ± 0 % of Control
- Selectivity Index (SI) Fibroblast/Fadu (Fadu cells; ratio of mean best-fit IC50 for primary fibroblasts and best-fit IC50 for Fadu): 1.6
- IC50 (Fadu cells; read-out: Fadu IC50 values, individual replicates n1-n3, IC50 independently determined for each replicate measurement (Supplement S.6)): 3.2 µM and 2.75 µM (2×)
- IC50 (Fadu cells; read-out: IC50 Value ± SEM Fadu, 72 h treatment, best-fit values, n = 3): 2900 ± 60 nM
- Primer fibroblast Cell viability (% of controll) ([1]; 0.7 μM): 97 % of controll and 105 % of controll and 109 % of controll
- Primer fibroblast Cell viability (% of controll) ([1]; 1 μM): 111 % of controll and 113 % of controll and 100 % of controll
- Primer fibroblast Cell viability (% of controll) ([1]; 1.5 μM): 105 % of controll and 113 % of controll and 100 % of controll
- Primer fibroblast Cell viability (% of controll) ([1]; 2.3 μM): 105 % of controll and 107 % of controll and 101 % of controll
- Primer fibroblast Cell viability (% of controll) ([1]; 3.4 μM): 108 % of controll (2×) and 100 % of controll
- Primer fibroblast Cell viability (% of controll) ([1]; 5.1 μM): 9 % of controll (2×) and 6 % of controll
- Primer fibroblast Cell viability (% of controll) ([1]; 7.7 μM): 0 % of controll
- Primer fibroblast Cell viability (% of controll) ([1]; 17.3 μM): 0 % of controll
- Primer fibroblast Cell viability (% of controll) ([1]; 26 μM): 0 % of controll
- IC50 ([1]; read-out: IC50 Value ± SEM Primary Fibroblast, 72 h treatment, best-fit values, n = 3): 4600 ± 830 nM
- IC50 ([1]; read-out: Primary fibroblast IC50 values, Mean, mean of independently fitted replicate IC50 values (Supplement S.6), ONC201 value mathematically estimated from inflection point): 4630 nM
- IC50 ([1]; read-out: Primary fibroblast IC50 values, individual replicates n1-n3, IC50 independently determined for each replicate (Supplement S.6), ONC201 value mathematically estimated from inflection point, viability stayed above 50%): 4800 nM and 4280 nM
- HEK293T WT Cell viability (% of controll) (HEK293T WT cells; 0.4 μM): 106 % of controll and 101 % of controll and 99 % of controll and 100 % of controll
- HEK293T WT Cell viability (% of controll) (HEK293T WT cells; 0.6 μM): 106 % of controll (2×) and 109 % of controll and 81 % of controll
- HEK293T WT Cell viability (% of controll) (HEK293T WT cells; 1.0 μM): 82 % of controll and 90 % of controll and 94 % of controll and 81 % of controll
- HEK293T WT Cell viability (% of controll) (HEK293T WT cells; 1.6 μM): 65 % of controll and 60 % of controll and 52 % of controll (2×)
- HEK293T WT Cell viability (% of controll) (HEK293T WT cells; 2.5 μM): 11 % of controll and 6 % of controll and 5 % of controll (2×)
- HEK293T WT Cell viability (% of controll) (HEK293T WT cells; 4.0 μM): 0 % of controll
- HEK293T WT Cell viability (% of controll) (HEK293T WT cells; 6.4 μM): 0 % of controll
- HEK293T WT Cell viability (% of controll) (HEK293T WT cells; 16.25 μM): 0 % of controll
- HEK293T WT Cell viability (% of controll) (HEK293T WT cells; 26 μM): 0 % of controll
- IC50 (HEK293T WT cells; read-out: HEK293T WT IC50 values, individual replicates n1-n4, IC50 independently determined for each replicate measurement (Supplement S.6)): 1.6 µM and 1.5 µM and 1.65 µM and 1.62 µM
- IC50 (HEK293T WT cells; read-out: IC50 (µM) HEK293T WT, 72 h treatment, ± SEM, best-fit values, n = 4): 1.6 ± 0.04 µM
- concentration range of almost complete eradication of PANC-1 and Fadu cells with little to no cytotoxic effect toward fibroblasts (PANC-1 and Fadu cells): 3000 to 4000 nM
- HEK293T CLPP-/- Cell viability (% of controll) (HEK293T CLPP^−/− cells; 0.4 μM, 72 h, dose–response, listed as CZT456, 0.4 µM): 109 % of controll and 108 % of controll and 110 % of controll and 114 % of controll
- HEK293T CLPP-/- Cell viability (% of controll) (HEK293T CLPP^−/− cells; 0.6 μM, 72 h, dose–response, listed as CZT456, 0.6 µM): 111 % of controll and 109 % of controll and 110 % of controll
- HEK293T CLPP-/- Cell viability (% of controll) (HEK293T CLPP^−/− cells; 1.0 μM, 72 h, dose–response, listed as CZT456, 1 µM): 105 % of controll and 107 % of controll and 106 % of controll
- HEK293T CLPP-/- Cell viability (% of controll) (HEK293T CLPP^−/− cells; 1.6 μM, 72 h, dose–response, listed as CZT456, 1.6 µM): 92 % of controll and 96 % of controll and 103 % of controll and 93 % of controll
- HEK293T CLPP-/- Cell viability (% of controll) (HEK293T CLPP^−/− cells; 2.5 μM, 72 h, dose–response, listed as CZT456, 2.5 µM): 41 % of controll and 59 % of controll and 55 % of controll and 48 % of controll
- HEK293T CLPP-/- Cell viability (% of controll) (HEK293T CLPP^−/− cells; 4.0 μM, 72 h, dose–response, listed as CZT456, 4 µM): 1 % of controll and 8 % of controll and 9 % of controll
- HEK293T CLPP-/- Cell viability (% of controll) (HEK293T CLPP^−/− cells; 6.4 μM, 72 h, dose–response): 0 % of controll
- HEK293T CLPP-/- Cell viability (% of controll) (HEK293T CLPP^−/− cells; 16.25 μM, 72 h, dose–response): 0 % of controll
- HEK293T CLPP-/- Cell viability (% of controll) (HEK293T CLPP^−/− cells; 26 μM, 72 h, dose–response): 0 % of controll
- effect on the viability of HEK293T CLPP^−/− cells (HEK293T CLPP^−/− cells; dose–response, 72 h, compared with HEK293T WT): maintained
- IC50 (HEK293T CLPP^−/− cells; read-out: IC50 (µM) HEK293T CLPP^−/−, 72 h treatment, ± SEM, best-fit values, n = 4): 2.4 ± 0.03 µM
- viable cells / colonies after shorter exposure (PANC-1 cells [2]; 24 h treatment followed by 5 days post-incubation): left only traces of viable cells
- viable cells / colonies after longer exposure (PANC-1 cells [2]; 72 h treatment followed by 3 days post-incubation): no viable cells were discernible
- PANC-1 Cell viability (% of controll) (PANC-1 cells [3]; 0.7 μM, 72 h): 112 % of controll and 107 % of controll and 109 % of controll
- PANC-1 Cell viability (% of controll) (PANC-1 cells [3]; 1 μM, 72 h): 107 % of controll and 114 % of controll and 110 % of controll
- PANC-1 Cell viability (% of controll) (PANC-1 cells [3]; 1.5 μM, 72 h): 116 % of controll and 119 % of controll and 108 % of controll
- PANC-1 Cell viability (% of controll) (PANC-1 cells [3]; 2.3 μM, 72 h): 97 % of controll and 105 % of controll and 115 % of controll
- PANC-1 Cell viability (% of controll) (PANC-1 cells [3]; 3.4 μM, 72 h): 2 % of controll (2×) and 4 % of controll
- PANC-1 Cell viability (% of controll) (PANC-1 cells [3]; 5.1 μM, 72 h): 0 % of controll
- PANC-1 Cell viability (% of controll) (PANC-1 cells [3]; 7.7 μM, 72 h): 0 % of controll
- PANC-1 Cell viability (% of controll) (PANC-1 cells [3]; 17.3 μM, 72 h): 0 % of controll
- PANC-1 Cell viability (% of controll) (PANC-1 cells [3]; 26 μM, 72 h): 0 % of controll
- Cell Viability (% of Control) 2.8 µM (PANC-1 cells [3]; PANC-1, 2.8 µM, 72 h, second-set screening, mean ± SD, n = 2): 44 ± 41 % of Control
- Cell Viability (% of Control) 8.3 µM (PANC-1 cells [3]; PANC-1, 8.3 µM, 72 h, second-set screening, mean ± SD, n = 2): 0 ± 0 % of Control
- Cell Viability (% of Control) 25 µM (PANC-1 cells [3]; PANC-1, 25 µM, 72 h, second-set screening, mean ± SD, n = 2): 0 ± 0 % of Control
- Selectivity Index (SI) Fibroblast/PANC-1 (PANC-1 cells [3]; ratio of mean best-fit IC50 for primary fibroblasts and best-fit IC50 for PANC-1): 1.7
